# Source: patent US8354433B2, “Anti-inflammatory agents as virostatic compounds” (4SC AG, priority 2009, dated 2013)
# Where two headings read alike, the source gives them in different places.
# Tests used:
# [1] = tested on: HCV subgenomic replicon of genotype 1b; experiment: microbe, parasite or virus in culture; assay type: cell-based; conditions: Hepatitis C virus, 24 h, read-out: Antiviral Activity EC50/nM
# YFV Strain 17D = experiment: microbe, parasite or virus in culture; assay type: cell-based; conditions: Yellow fever virus, Vero, read-out: Antiviral Activity EC50
# RSV Strain Long = experiment: microbe, parasite or virus in culture; assay type: cell-based; conditions: human respiratory syncytial virus, Vero, read-out: Antiviral Activity EC50
# Influenza Virus (H7N7) = experiment: microbe, parasite or virus in culture; assay type: cell-based, avian influenza virus (Fowl Plaque Virus; conditions: unidentified influenza virus, H7N7, A549, 16 h; for inhibition at 30 µM: read-out: Antiviral Activity % Inhibition
# in vitro [2] = conditions: human
# [3] = Cell viability in HepG2-2.2.15 cells (Cell Titer 96); assay type: cell-based; conditions: human, six days, read-out: TC50
# Procedure: Anti-HBV assay was performed as described in Korba, B F and Milman, G., 1991 (A cell culture assay for compound which inhibits hepatitis B virus replication. Antiviral Res. 15: 217-228) and in Korba, B F and Gerin, J L., 1992 (Use of a standardized cell culture assay to assess activities of nucleoside analogs again hepatitis B virus replication. Antiviral Res. 19: 55-70) with modifications to measure extracellular HBV DNA copy with real-time PCR (qPCR/TaqMan). Briefly, HepG2-2.2.15 cells were plated in 96-well microtiter plates. Only the interior wells were utilized to reduce “edge effects” observed during cell culture; the exterior wells were filled with complete medium to help minimize sample evaporation. After 16-24 hours the confluent monolayer of HepG2-2.2.15 cells was washed and the medium was replaced with complete medium containing various concentrations of a test compound in triplicate. 3TC was used as the positive control, while media alone was added to cells as a negative control. Three days later the culture medium was replaced with fresh medium containing the appropriately diluted drug. Six days following the initial administration of the test compound, the cell culture supernatant was collected, treated with pronase and then used in a quantitative qPCR TaqMan assay. Antiviral activity was calculated from the reduction in HBV DNA levels (IC50). Cell Titer 96 ®AQueous One Solution Cell Proliferation kit (Promega, Madison, Wis.) was used to measure cell viability which is used to calculate toxicity (TC50). The therapeutic index (TI) was calculated as TC50/IC50
# [4] = biological target: dihydroorotate dehydrogenase (DHODH) (Homo sapiens, UniProt Q02127); experiment: DHODH inhibition, in vitro assay; assay type: biochemical
# Sequence of dihydroorotate dehydrogenase (DHODH) (Q02127 whole entry): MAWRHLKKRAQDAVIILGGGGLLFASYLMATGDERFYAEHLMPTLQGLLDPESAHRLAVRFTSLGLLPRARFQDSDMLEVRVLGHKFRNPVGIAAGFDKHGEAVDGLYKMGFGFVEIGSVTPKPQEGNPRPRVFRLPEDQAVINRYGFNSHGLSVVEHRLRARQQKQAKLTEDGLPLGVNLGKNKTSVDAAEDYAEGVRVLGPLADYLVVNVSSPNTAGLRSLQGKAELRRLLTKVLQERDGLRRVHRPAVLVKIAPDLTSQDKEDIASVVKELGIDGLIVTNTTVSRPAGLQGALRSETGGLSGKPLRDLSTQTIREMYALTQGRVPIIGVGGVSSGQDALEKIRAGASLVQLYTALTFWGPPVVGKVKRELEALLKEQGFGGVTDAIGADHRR
# HIV-191US005 = experiment: Anti-HIV efficacy in fresh human PBMCs (RT activity and p24 ELISA); assay type: cell-based, HIV-1; conditions: Human immunodeficiency virus 1, PBMC, 168 h
# HCMV AD 169-GFP = experiment: microbe, parasite or virus in culture; assay type: cell-based, Human Cytomegalovirus; conditions: Human betaherpesvirus 5, Fibroblast, 168 h, read-out: Antiviral Activity EC50
# [5] = tested on: ET cell line (luc-ubi-neo/ET), Huh7; experiment: CytoTox-1 cytotoxicity in ET cells; conditions: 24 h, cell unit μM
# DENV Type 2 (New Guinea) = experiment: microbe, parasite or virus in culture; assay type: cell-based; conditions: Dengue virus, Vero C1008, read-out: Antiviral Activity EC50
# human PBMCs = experiment: MTS cytotoxicity in human PBMCs; conditions: seven days
# WNV Strain NY-99 = experiment: microbe, parasite or virus in culture; assay type: cell-based; conditions: West Nile virus, Vero, read-out: Antiviral Activity EC50
# HBV = experiment: Anti-HBV evaluation with HepG2 2.2.15 cells (extracellular HBV DNA, qPCR); assay type: cell-based; conditions: Hepatitis B virus, read-out: Antiviral Activity EC50
# Procedure: Compounds were solubilized in DMSO in a concentration of 40 mM. (−)-2′-Desoxy-3′-thiacytidin (3TC) was used as the positive antiviral controls. The high-test concentrations were 10 μM for 4SC compounds and 1 μM for 3TC.
# Briefly, HepG2-2.2.15 cells were plated in 96-well microtiter plates. Only the interior wells were utilized to reduce “edge effects” observed during cell culture; the exterior wells were filled with complete medium to help minimize sample evaporation. After 16-24 hours the confluent monolayer of HepG2-2.2.15 cells was washed and the medium was replaced with complete medium containing various concentrations of a test compound in triplicate. 3TC was used as the positive control, while media alone was added to cells as a negative control. Three days later the culture medium was replaced with fresh medium containing the appropriately diluted drug. Six days following the initial administration of the test compound, the cell culture supernatant was collected, treated with pronase and then used in a quantitative qPCR TaqMan assay. Antiviral activity was calculated from the reduction in HBV DNA levels (IC50). Cell Titer 96 ®AQueous One Solution Cell Proliferation kit (Promega, Madison, Wis.) was used to measure cell viability which is used to calculate toxicity (TC50). The therapeutic index (TI) was calculated as TC50/IC50
# Ebola Virus = experiment: microbe, parasite or virus in culture; assay type: cell-based; conditions: Zaire ebolavirus, Vero, read-out: Antiviral Activity % Inhibition
# in vitro [6] = conditions: African green monkey
# in vitro [7] = conditions: African green monkey; remark: listed apart in the source
# in vitro [8] = conditions: African green monkey; remark: listed apart in the source
# Vero cells [9] = conditions: African green monkey
# Vero cells [10] = conditions: African green monkey; remark: listed apart in the source
# Vero cells [11] = conditions: African green monkey; remark: listed apart in the source
# [12] = Table 3, read-out: DHODH IC50/nM
# [13] = Table 4, read-out: DHODH IC50/nM
# [14] = Table 5, read-out: DHODH IC50/nM
# [15] = Table 6, read-out: DHODH IC50/nM
# [16] = Table 7, read-out: DHODH IC50/nM
# [17] = Table 8, read-out: DHODH IC50/nM
# [18] = Endpoint RT, seven days, read-out: EC50/nM
# [19] = Endpoint RT, seven days, read-out: EC90/nM
# [20] = Endpoint p24, seven days, read-out: EC50/nM
# [21] = Endpoint p24, seven days, read-out: EC90/nM
# [22] = 144 h, HepG2 2.2.15 cells, HBV DNA, six days
Structure (SMILES),EC50 [1] [nM],EC50 (YFV Strain 17D),EC50 (RSV Strain Long),EC50 (Influenza Virus (H7N7)) [nM],CC50 at 6 days [3] [nM],"IC50 [4, 12] [nM]","IC50 [4, 13] [nM]","IC50 [4, 14] [nM]","IC50 [4, 15] [nM]","IC50 [4, 16] [nM]","IC50 [4, 17] [nM]",EC50 (HIV-191US005; [18]) [nM],EC90 (HIV-191US005; [19]) [nM],EC50 (HIV-191US005; [20]) [nM],EC90 (HIV-191US005; [21]) [nM],EC50 (DENV Type 2 (New Guinea)),TC50/nM (human PBMCs) [nM],EC50 (WNV Strain NY-99),EC50 (HBV; [22]) [nM],"IC50 ([4]; DHODH IC50/nM, Table 1) [nM]",other results
"O=C(Nc1c(F)c(F)c(-c2cccc(OC(F)(F)F)c2)c(F)c1F)c1ccsc1C(=O)O [Compound 1, 3-(2,3,5,6-Tetrafluoro-3′-trifluoromethoxy-biphenyl-4-ylcarbamoyl)-thiophene-2-carboxylic acid]",23,232 nM,2100 nM,~1500,> 10000,< 20,< 20,< 20,< 20,< 20,< 20,120,300,170,300,72 nM,>100000,735 nM,4800,–,"CC50 at 7 days (in vitro [2]): > 10000 nM; IC50 [4]: < 20 nM; IC50 ([4]; Table 10, read-out: DHODH IC50/nM): < 20 nM; IC50 ([4]; read-out: DHODH IC50/nM, Table 2): < 20 nM; EC50 (HCMV AD 169-GFP): 780 nM; TC50 [5]: >100 µM"
"O=C(O)C1=C(C(=O)Nc2ccc(OCc3c(F)cccc3Cl)c(Cl)c2)CCC1 [Compound 3, 2-[3-Chloro-4-(2-chloro-6-fluoro-benzyloxy)-phenylcarbamoyl]-cyclopent-1-enecarboxylic acid]",500,2190 nM,> 10000 nM,–,> 10000,< 20,< 20,< 20,< 20,–,–,190,700,190,630,83 nM,44800,> 10000 nM,> 10000,< 20,"IC50 ([4]; DHODH IC50/nM, Table 7): < 20 nM; IC50 ([4]; Table 2, read-out: DHODH IC50/nM): < 20 nM"
"O=C(O)C1=C(C(=O)Nc2c(F)c(F)c(-c3cccc(OC(F)(F)F)c3)c(F)c2F)CCC1 [Compound 4, 2-(2,3,5,6-Tetrafluoro-3′-trifluoromethoxy-biphenyl-4-ylcarbamoyl)-cyclopent-1-enecarboxylic acid]",80,681 nM,2150 nM,~3000,> 10000,–,–,< 20,< 20,–,< 20,60,210,80,240,67 nM,42400,> 10000 nM,–,< 20,"inhibition at 30 µM (Influenza Virus (H7N7)): > 90%; inhibition at 31.6 µM (Ebola Virus): > 90%; inhibition at 100 µM (Ebola Virus): > 98%; IC50 ([4]; DHODH IC50/nM, Table 2): < 20 nM; IC50 ([4]; DHODH IC50/nM, Table 3): < 20 nM; IC50 ([4]; DHODH IC50/nM, Table 4): < 20 nM; IC50 ([4]; DHODH IC50/nM, Table 7): < 20 nM; IC50 ([4]; Table 9, read-out: DHODH IC50/nM): < 20 nM; EC50 (HBV; HepG2 2.2.15, 144 h): > 10000 nM"
"COc1cccc(-c2ccc(NC(=O)C3=C(C(=O)O)CCC3)c(F)c2)c1 [Compound 6, 2-(3-Fluoro-3′-methoxy-biphenyl-4-ylcarbamoyl)-cyclopent-1-enecarboxylic acid]",4640,–,–,–,–,–,–,–,–,–,–,–,–,–,–,–,>100000,–,–,–,"inhibition at 30 µM (Influenza Virus (H7N7)): > 80%; inhibition at 31.6 µM (Ebola Virus): 90%; inhibition at 100 µM (Ebola Virus): > 98%; EC50 (HIV-191US005; read-out: EC50/nM, Endpoint RT, seven days): 2190 nM; EC50 (HIV-191US005; read-out: EC50/nM, Endpoint p24, seven days): 1970 nM; EC90 (HIV-191US005; read-out: EC90/nM, Endpoint RT, seven days): 6110 nM; EC90 (HIV-191US005; read-out: EC90/nM, Endpoint p24, seven days): 6250 nM"
"O=C(Nc1c(F)cc(-c2cccc(OC(F)(F)F)c2)cc1F)c1ccsc1C(=O)O [Compound 17, 3-(3,5-difluoro-3′-(trifluoromethoxy)biphenyl-4-ylcarbamoyl)thiophene-2-carboxylic acid]",–,2250 nM,> 10000 nM,~3000,> 10000,< 20,< 20,–,< 20,< 20,< 20,–,–,–,–,> 10000 nM,–,6390 nM,6400,–,"CC50 (in vitro [6]): > 10000 nM; IC50 ([4]; DHODH IC50/nM, Table 5): < 20 nM; CC50 (in vitro [7]): > 10000 nM; CC50 (in vitro [8]): > 10000 nM"
"NC(=O)c1ncn([C@@H]2O[C@H](CO)[C@@H](O)[C@H]2O)n1 [Ribavirin, reference compound]",–,7.33 µg/mL,7.95 µg/mL,–,–,–,–,–,–,–,–,–,–,–,–,26.5 µg/mL,–,22 µg/mL,–,–,TC50 (Vero cells [9]): >100 µg/mL; TC50 (Vero cells [10]): >100 µg/mL; TC50 (Vero cells [11]): >100 µg/mL
